One experiment deals with T1, SERT.
T1 construct: YFP (yellow-fluorescent protein); expressed in transfected cells
As to the kind of experiment: Batch release assay, [3H]5-HT release from SERT-expressing HEK293 cells. Type of experiment: cell-based, human. How it is done: (§1) Human embryonic kidney (HEK293) cells stably expressing the yellow-fluorescent protein (YFP)-tagged version of the human isoforms of SERT (abbreviated as SERT) and DAT (abbreviated as DAT) were used for the uptake inhibition and release assays. The generation and maintenance of stable, monoclonal cell lines expressing these transporters was conducted as described by ([Mayer F. P. et al., 2016]; [Mayer et al., 2016 FP.]). HEK293 cells were maintained in DMEM supplemented with heat-inactivated 10% FBS, 100 µg/100 ml streptomycin, 100 U/ml penicillin, and Geneticin (G418; 50 μg/ml) and cultured in a humidified atmosphere (5% CO2, 37°C). The cells were seeded at a density of 0.36 million cells/well onto 96-well plates previously coated (24 h) with poly-D-lysine (PDL).
HEK293 cells expressing the transporter of interest were preloaded with the tritiated substrate 0.08 μM [^3H]5-HT (SERT) or 0.1 μM [^3H]MPP^+ (DAT) in KHB (50 μL/well) for 20 min (5% CO2, 37°C). Subsequently, the cells were washed three times using KHB (200 μL/well) at room temperature. Afterward, a pre-incubation step of 10 min in KHB or in KHB + monensin (Mon) 10 μM was done. […] To determine the specificity of drug-induced reverse transport, selective transporter inhibitors 0.05 μM paroxetine (SERT) and 0.5 μM of GBR12909 (DAT) and effective releasers 10 μM p-chloroamphetamine (PCA; SERT) and 10 μM d-amphetamine (DAT) were used (Supplementary Figure S1). The resulting supernatant was collected and transferred to a new well every 2 min (four times for KHB/Mon and five times for each tested compound). Three independent experiments were performed in duplicate. Liquid scintillation cocktail was added to the wells with remaining cells (200 μL) and with the transferred supernatant (100 μL) and to the wells used for total uptake and activity measurements (200 μL). Total radioactivity present in the supernatant and in the remaining cells was set as 100%, and the amount of [^3H] substrate present in the supernatant was expressed as percentage of the total.
(§2) Data were expressed as mean ± SEM. Competition curves were plotted and fitted by non-linear regression, and data were best fitted to a sigmoidal dose-response curve to obtain an IC50 value. 1/DAT IC50: 1/SERT IC50 was used to calculate transporter ratios. Data from batch release assays were statistically analyzed with a mixed-effects model, employing Šidák’s correction for multiple comparisons. One-way/two-way ANOVA or two-way ANOVA of repeated measures, followed by Tukey’s or Dunnett’s post hoc test, was also used when appropriate. The α error probability was set at 0.05 (p < 0.05). The size group for each experiment and statistical results are shown in the corresponding legend of figures. Statistical calculations were performed using GraphPad Prism (GraphPad Software, San Diego, CA, United States).

A further experiment addresses T2, hDAT (Homo sapiens, UniProt Q01959).
T2 construct: YFP (yellow-fluorescent protein); expressed in transfected cells
As to the kind of experiment: Uptake inhibition assay, [3H]MPP+ uptake in transfected HEK293 cells. Type of experiment: cell-based. The protocol: as §1
(§3) The medium was removed and immediately replaced with 200 µL/well of Krebs-HEPES buffer (KHB; 10 mM HEPES, 120 mM NaCl, 3 mM KCl, 2 mM CaCl2·2H2O, 2 mM MgCl2·6H2O, 20 mM D-glucose; pH 7.3). The cells were pre-incubated with different concentrations of the drug in KHB at a final volume of 50 µL/well for 5 min (DAT, SERT). Immediately after, the pre-incubation solution was removed and the cells were incubated with the tritiated substrates, 0.02 µM [^3H]MPP^+ for the DAT (3 min) and 0.1 µM [^3H]5-HT for the SERT (1 min), along with different concentrations of the drug in KHB. Finally, the [^3H]substrate was removed and the cells were washed with ice-cold KHB followed by the addition of sodium dodecyl sulfate (SDS) 1%. The lysate was then added to the scintillation fluid, and the radioactivity was quantified with a beta-scintillation counter (Perkin Elmer, Waltham, MA, United States).
(§4) The uptake in the absence of the drug compound was normalized to 100%, being the percentage of the uptake in the presence of different concentrations of the drug expressed as a percentage thereof. 3–4 independent experiments were performed in duplicate.
as §2

Another experiment addresses T3, hSERT (Homo sapiens, UniProt P31645).
T3 construct: YFP (yellow-fluorescent protein); expressed in transfected cells
As to the kind of experiment: Uptake inhibition assay, [3H]5-HT uptake in transfected HEK293 cells. Type of experiment: cell-based. The protocol:
as §1, §3, §4, §2

Another experiment relates to Swiss CD-1 mice. Put plainly: Conditioned place preference (CPP). Conditions: 30 mg/kg i.p. The format is in vivo. How it is done: For the behavioral and gene expression experiments, male Swiss CD-1 mice (Janvier, Le Genest, France) weighing 30–35 g (6–8 weeks old) were used. With the aim of reducing the number of animals and minimize their suffering, animal procedures were performed in accordance with the ARRIVE guidelines. All animal care and experimental protocols in this study were in accordance with the guidelines of the European Community Council (2010/63/EU), as amended by Regulation (EU) 2019/1010, and approved by the Animal Ethics Committee of the University of Barcelona under the supervision of the Autonomous Government of Catalonia. The animals were housed in temperature-controlled conditions (22 ± 1°C) under a 12 h light/dark cycle and had free access to food and drinking water. During the study, the animals were supervised immediately after injection and during the behavioral procedure as well as 24 h after injection, and different parameters were visually evaluated for humane endpoints, such as self-mutilations, strange vocalizations, abnormal posture, or a greater weight loss than 20%. The sample size was determined using GPower software. […]
The rewarding effects were determined using a place conditioning paradigm as described by [Duart-Castells et al. (2019]). […] The time spent in each compartment was recorded (Smart 3.0, Panlab, Spain). […]

This is an account of results in article PMC8576102, “Structure–Activity Relationship of Novel Second-Generation Synthetic Cathinones: Mechanism of Action, Locomotion, Reward, and Immediate-Early Genes” (Frontiers in Pharmacology, 2021).

T2 sequence (Q01959 whole entry): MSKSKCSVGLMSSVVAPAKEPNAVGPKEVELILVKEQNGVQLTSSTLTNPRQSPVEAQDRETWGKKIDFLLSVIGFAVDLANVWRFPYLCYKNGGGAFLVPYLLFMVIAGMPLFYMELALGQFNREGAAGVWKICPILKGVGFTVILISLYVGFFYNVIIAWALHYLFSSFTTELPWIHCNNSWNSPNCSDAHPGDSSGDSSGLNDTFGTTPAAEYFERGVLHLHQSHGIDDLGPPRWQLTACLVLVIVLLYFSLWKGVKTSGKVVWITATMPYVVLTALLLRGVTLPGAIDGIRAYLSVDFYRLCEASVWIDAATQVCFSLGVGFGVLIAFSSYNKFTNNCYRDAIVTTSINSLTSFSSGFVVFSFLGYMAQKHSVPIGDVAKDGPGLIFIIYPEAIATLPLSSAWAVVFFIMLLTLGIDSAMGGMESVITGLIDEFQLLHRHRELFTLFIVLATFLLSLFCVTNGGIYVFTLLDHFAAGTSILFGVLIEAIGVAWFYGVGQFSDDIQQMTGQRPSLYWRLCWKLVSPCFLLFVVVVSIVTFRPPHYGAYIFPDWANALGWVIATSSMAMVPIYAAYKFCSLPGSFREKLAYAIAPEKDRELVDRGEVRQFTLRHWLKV
T3 sequence (P31645 whole entry): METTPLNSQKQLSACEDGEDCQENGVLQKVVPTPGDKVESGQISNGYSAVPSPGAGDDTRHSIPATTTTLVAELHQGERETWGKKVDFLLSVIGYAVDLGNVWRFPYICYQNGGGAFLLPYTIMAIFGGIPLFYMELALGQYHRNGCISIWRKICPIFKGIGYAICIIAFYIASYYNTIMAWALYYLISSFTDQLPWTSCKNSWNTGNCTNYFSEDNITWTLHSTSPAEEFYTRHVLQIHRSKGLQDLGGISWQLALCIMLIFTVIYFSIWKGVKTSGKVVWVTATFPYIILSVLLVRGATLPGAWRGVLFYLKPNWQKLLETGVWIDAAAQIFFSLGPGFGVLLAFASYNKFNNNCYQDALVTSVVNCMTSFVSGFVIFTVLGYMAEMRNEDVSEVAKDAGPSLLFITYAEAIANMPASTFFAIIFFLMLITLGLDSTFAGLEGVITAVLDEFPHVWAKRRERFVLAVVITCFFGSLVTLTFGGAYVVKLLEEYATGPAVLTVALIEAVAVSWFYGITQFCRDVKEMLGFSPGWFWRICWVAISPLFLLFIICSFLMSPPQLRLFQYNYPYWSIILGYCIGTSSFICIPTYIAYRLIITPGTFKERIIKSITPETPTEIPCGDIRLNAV

As for `CCCC(NCC)C(=O)c1ccc2c(c1)OCO2` (stereo not drawn) [N-Ethyl-pentylone, 3’,4’-methylendioxy-α-ethylaminovalerophenone], the “[3H]5-HT release at SERT-expressing HEK293 cells, max.” value in the experiment on SERT (compound close to its IC50 (NEP 6 µM)) is recorded as “≈ 5 % total cpm”. Also, the “[3H]5-HT release at the SERT (in words)” value in the experiment on SERT (compound close to its IC50, KHB vs KHB + monensin 10 µM) is “smallest”. For the same compound, the IC50 (as a rule, the concentration that inhibits the measured activity by half) on hDAT came to 0.13 ± 0.01 µM; at hSERT, 6.37 ± 0.09 µM. Moreover, the hDAT/hSERT ratio at hDAT (1/DAT IC50: 1/SERT IC50) was determined as 51. Besides, the “CPP rewarding effects vs saline at the highest dose” value with Swiss CD-1 mice was “significant increase”.
